Test results: BindingDB's records for doi:10.1021/jm000443d (University of California At San Diego, 2001)

Biological target: Protein kinase C alpha type (Homo sapiens, UniProt P17252)
Experiment: Inhibition of Protein kinase C alpha

SMILES	IC50 [nM]
O=C(N[C@@H]1CCCCCC1OC(=O)c1ccc(C(=O)C2C(O)=CC=CC2C(=O)O)c(O)c1)c1ccc(O)cc1 (stereo not given in full)	0.27
O=C(N[C@@H]1CSCCCC1OC(=O)c1ccc(C(=O)C2C(O)=CC=CC2C(=O)O)c(O)c1)c1ccc(O)cc1 (stereo not given in full)	3.3
O=C(N[C@@H]1CS(=O)(=O)CCCC1OC(=O)c1ccc(C(=O)C2C(O)=CC=CC2C(=O)O)c(O)c1)c1ccc(O)cc1 (stereo not given in full)	9.6
O=C(N[C@@H]1CNCCC[C@H]1OC(=O)c1cc(O)c(C(=O)c2c(O)cccc2C(=O)O)c(O)c1)c1ccc(O)cc1 [Acyclic Balanol Analog (-)-1]	0.074
O=C(N[C@@H]1COCCCC1OC(=O)c1ccc(C(=O)C2C(O)=CC=CC2C(=O)O)c(O)c1)c1ccc(O)cc1 (stereo not given in full)	6.7
